Measurements as given in the supplement of paper PMC11061612.

Experiments:
[1] = compound: COc1nnc2ccc(N3CCC(c4ccc(OCCN5CCN(C)C(=O)[C@H]5C)cc4)CC3)nn12 [AZD5153]; details: max 1 µM
Method in brief: (§1)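 Cancer cell lines were seeded in 1536-well plates in 7.5 μl DMEM/F12 or RPMI with 10% FBS, held 24 hours at 37°C and 5% CO2, then dosed for 72 hours (final DMSO typically 0.2%). Viability was read by CellTiter-Glo 2.0 luminescence and scaled between blank-well and DMSO-well means. The single-agent IC50 comes from dose responses fitted to a two-parameter logistic curve with a non-linear mixed effects model.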

[2] = compound: O=c1[nH]cc(F)c(=O)[nH]1 [5-Fluorouracil]; details: max 20 µM
Method in brief: as §1

[3] = compound: COc1cccc(OCCCN)c1-c1cc(Nc2cnc(C#N)cn2)n[nH]1 [Prexasertib]; details: max 1 µM
Method in brief: as §1

[4] = compound: COc1cc([C@@H]2c3cc4c(cc3[C@@H](O[C@@H]3O[C@@H]5CO[C@@H](C)O[C@H]5[C@H](O)[C@H]3O)[C@H]3COC(=O)[C@H]23)OCO4)cc(OC)c1O [Etoposide]; details: max 10 µM
Method in brief: as §1

[5] = compound: Nc1ccn([C@@H]2O[C@H](CO)[C@@H](O)C2(F)F)c(=O)n1 [Gemcitabine]; details: max 0.3 µM
Method in brief: as §1

[6] = compound: C1CC(C1)(C(=O)[O-])C(=O)[O-].N.N.[Pt+2] [Carboplatin]; details: max 10 µM
Method in brief: as §1

[7] = compound: O=C(Nc1ccc2[nH]nc(-c3ccncc3)c2c1)[C@@H]1CCN(CC(=O)N2CCN(c3ccc(-c4ncccn4)cc3)CC2)C1; details: max 5 µM
Method in brief: as §1

[8] = compound: CC1=CN2[C@@H](C1)C=NC3=CC(=C(C=C3C2=O)OC)OCCCCCOC4=C(C=C5C(=C4)N=C[C@@H]6CC(=CN6C5=O)C)OC [SG3199]; details: max 0.001 µM
Method in brief: as §1

[9] = compound: C[C@@H](Oc1cc(-c2cnn(C3CCNCC3)c2)cnc1N)c1c(Cl)ccc(F)c1Cl [Crizotinib]; details: max 10 µM
Method in brief: as §1

[10] = compound: CC(=O)Nc1cccc(-n2c(=O)n(C3CC3)c(=O)c3c(Nc4ccc(I)cc4F)n(C)c(=O)c(C)c32)c1 [Trametinib]; details: max 1 µM
Method in brief: as §1

[11] = compound: C1CN(CCC1(C(=O)N[C@@H](CCO)C2=CC=C(C=C2)Cl)N)C3=NC=NC4=C3C=CN4 [AZD5363]; details: max 10 µM
Method in brief: as §1

[12] = compound: Cc1nc(-c2cn3c(n2)-c2ccc(-c4cnn(C(C)(C)C(N)=O)c4)cc2OCC3)n(C(C)C)n1 [Taselisib]; details: max 10 µM
Method in brief: as §1

[13] = compound: COc1cc(Nc2ncc3c(n2)-c2ccc(Cl)cc2C(c2c(F)cccc2OC)=NC3)ccc1C(=O)O [Alisertib]; details: max 10 µM
Method in brief: as §1

[14] = compound: Cc1cc2ncnn2cc1Nc1ncc2c(n1)n(C1CCOCC1)c(=O)n2C [AZD7648]; details: max 10 µM
Method in brief: as §1

[15] = compound: CC(C)n1c(=O)n(C)c2cnc3cc(F)c(-c4ccc(OCCCN5CCCCC5)nc4)cc3c21 [AZD1390]; details: max 0.3 µM
Method in brief: as §1

[16] = compound: O=C(c1cc(Cc2n[nH]c(=O)c3ccccc23)ccc1F)N1CCN(C(=O)C2CC2)CC1 [Olaparib]; details: max 10 µM
Method in brief: as §1

[17] = compound: C=CCn1c(=O)c2cnc(Nc3ccc(N4CCN(C)CC4)cc3)nc2n1-c1cccc(C(C)(C)O)n1 [AZD1775]; details: max 3 µM
Method in brief: as §1

[18] = compound: CS(=O)(=O)CCNCc1ccc(-c2ccc3ncnc(Nc4ccc(OCc5cccc(F)c5)c(Cl)c4)c3c2)o1 [Lapatinib]; details: max 10 µM
Method in brief: as §1

[19] = compound: CCN(CCO)CCCOc1ccc2c(Nc3cc(CC(=O)Nc4cccc(F)c4)[nH]n3)ncnc2c1 [AZD2811]; details: max 1 µM
Method in brief: as §1

[20] = compound: CC(=O)O[C@H]1C(=O)[C@@]2(C)[C@H]([C@H](OC(=O)c3ccccc3)[C@]3(O)C[C@H](OC(=O)[C@H](O)[C@@H](NC(=O)c4ccccc4)c4ccccc4)C(C)=C1C3(C)C)[C@]1(OC(C)=O)CO[C@@H]1C[C@@H]2O [Paclitaxel]; details: max 3 µM
Method in brief: as §1

[21] = compound: C[C@@H]1COCCN1C2=NC(=NC(=C2)C3(CC3)[S@](=N)(=O)C)C4=C5C=CNC5=NC=C4 [AZD6738]; details: max 10 µM
Method in brief: as §1

[22] = compound: NC1(c2ccc(-c3nc4ccn5c(=O)[nH]nc5c4cc3-c3ccccc3)cc2)CCC1 [MK-2206]; details: max 10 µM
Method in brief: as §1

[23] = compound: COc1cc2ncnc(Nc3ccc(F)c(Cl)c3)c2cc1OCCCN1CCOCC1 [Gefitinib]; details: max 10 µM
Method in brief: as §1

[24] = compound: Cc1c2c(nn1C)CSCc1cc(n(C)n1)CSc1cc(c3ccccc3c1)OCCCc1c(C(=O)O)n(C)c3c-2c(Cl)ccc13 [AZD5991]; details: max 1 µM
Method in brief: as §1

[25] = compound: COc1cccc2c1C(=O)c1c(O)c3c(c(O)c1C2=O)C[C@@](O)(C(=O)CO)C[C@@H]3O[C@H]1C[C@H](N)[C@H](O)[C@H](C)O1 [Doxorubicin]; details: max 1 µM
Method in brief: as §1

[26] = compound: N#Cc1cnc(Nc2cc(NC[C@H]3CNCCO3)c(C(F)(F)F)cn2)cn1 [SRA737]; details: max 10 µM
Method in brief: as §1

[27] = compound: Cn1cnc2c(F)c(Nc3ccc(Br)cc3Cl)c(C(=O)NOCCO)cc21 [Selumetinib]; details: max 10 µM
Method in brief: as §1

[28] = compound: C[C@@H](c1ccc2nccn2c1)n1nnc2ncc(-c3cnn(C)c3)nc21 [Savolitinib]; details: max 1 µM
Method in brief: as §1

[29] = compound: CC1(C)CCC(CN2CCN(c3ccc(C(=O)NS(=O)(=O)c4ccc(NCC5CCOCC5)c([N+](=O)[O-])c4)c(Oc4cnc5[nH]ccc5c4)c3)CC2)=C(c2ccc(Cl)cc2)C1 [Venetoclax]; details: max 1 µM
Method in brief: as §1

[30] = compound: CN(C)CCCOc1ccc(-c2ccc3ncc4c(c3c2)n(C2CCOCC2)c(=O)n4C)cn1 [AZD0156]; details: max 3 µM
Method in brief: as §1

[31] = compound: CCc1c2c(nc3ccc(O)cc13)-c1cc3c(c(=O)n1C2)COC(=O)[C@]3(O)CC [SN-38]; details: max 0.3 µM
Method in brief: as §1

[32] = compound: CC(=O)c1c(C)c2cnc(Nc3ccc(N4CCNCC4)cn3)nc2n(C2CCCC2)c1=O [Palbociclib]; details: max 10 µM
Method in brief: as §1

[33] = compound: C[C@@H](Nc1cc(F)cc(F)c1)c1cc(C(=O)N(C)C)cc2c(=O)cc(N3CCOCC3)oc12 [AZD8186]
Method in brief: as §1

[34] = compound: CC1=C(C(=CC=C1)Cl)NC(=O)C2=CN=C(S2)NC3=CC(=NC(=N3)C)N4CCN(CC4)CCO [Dasatinib]; details: max 2 µM
Method in brief: as §1

[35] = compound: CN(CC[C@H](CSC1=CC=CC=C1)NC2=C(C=C(C=C2)S(=O)(=O)NC(=O)C3=CC=C(C=C3)N4CCC(CC4)[C@H](C5=CC=CC=C5C6=CC=C(C=C6)Cl)O)S(=O)(=O)C(F)(F)F)CCO [AZD4320]; details: max 1 µM
Method in brief: as §1

[36] = compound: C1CN(CCC1(C(=O)N[C@@H](CCO)C2=CC=C(C=C2)Cl)N)C3=NC=NC4=C3C=CN4 [Capivasertib]; details: max 10 µM
Method in brief: as §1

Cell Line	IC50, cell viability 72 h [1] [µM]	IC50, cell viability 72 h [2] [µM]	IC50, cell viability 72 h [3] [µM]	IC50, cell viability 72 h [4] [µM]	IC50, cell viability 72 h [5] [µM]	IC50, cell viability 72 h [6] [µM]	IC50, cell viability 72 h [7] [µM]	IC50, cell viability 72 h [8] [µM]	IC50, cell viability 72 h [9] [µM]	IC50, cell viability 72 h [10] [µM]	IC50, cell viability 72 h [11] [µM]	IC50, cell viability 72 h [12] [µM]	IC50, cell viability 72 h [13] [µM]	IC50, cell viability 72 h [14] [µM]	IC50, cell viability 72 h [15] [µM]	IC50, cell viability 72 h [16] [µM]	IC50, cell viability 72 h [17] [µM]	IC50, cell viability 72 h [18] [µM]	IC50, cell viability 72 h [19] [µM]	IC50, cell viability 72 h [20] [µM]	IC50, cell viability 72 h [21] [µM]	IC50, cell viability 72 h [22] [µM]	IC50, cell viability 72 h [23] [µM]	IC50, cell viability 72 h [24] [µM]	IC50, cell viability 72 h [25] [µM]	IC50, cell viability 72 h [26] [µM]	IC50, cell viability 72 h [27] [µM]	IC50, cell viability 72 h [28] [µM]	IC50, cell viability 72 h [29] [µM]	IC50, cell viability 72 h [30] [µM]	IC50, cell viability 72 h [31] [µM]	IC50, cell viability 72 h [32] [µM]	IC50, cell viability 72 h ([33]; max 10 µM) [µM]	IC50, cell viability 72 h [34] [µM]	IC50, cell viability 72 h [35] [µM]	IC50, cell viability 72 h [36] [µM]	IC50, cell viability 72 h ([33]; max 3 µM) [µM]
LS-123 (Colorectal Carcinoma)	> 1	> 20	0.0964	> 10	> 0.3	> 10	2.73	> 0.001	> 10	0.395	> 10	1.94	> 10	> 10	> 0.3	> 10	2.92	> 10	> 1	1.21	> 10	> 10	> 10	> 1	0.611	> 10	> 10	> 1	> 1	> 3	> 0.3	> 10	> 10	0.557			
NCI-H1568 (Lung Adenocarcinoma)	> 1		0.424					> 0.001	> 10	> 1		> 10	> 10	> 10	> 0.3	> 10	1.76	> 10	> 1		> 10		> 10	> 1	> 1		> 10	> 1	> 1	> 3	0.297	> 10		> 2	> 1	> 10	> 3
NCI-H2052 (Mesothelioma)	> 1		0.574					> 0.001	> 10	> 1		3.67	> 10	> 10	> 0.3	> 10	> 3	> 10	> 1		> 10	> 10	> 10	> 1	> 1		> 10	> 1	> 1	> 3	0.0385	> 10		1.51	> 1	> 10	> 3
NCI-H2722 (Mesothelioma)	> 1		> 1					> 0.001	> 10	> 1		> 10	> 10	> 10	> 0.3	> 10	> 3	> 10	> 1		> 10		> 10	> 1	> 1		> 10	> 1	> 1	> 3	> 0.3	> 10		> 2	> 1	> 10	> 3
NUGC-4 (Gastric Carcinoma)	0.582		0.948					> 0.001	> 10	> 1		> 10	> 10	> 10	> 0.3	> 10	2.53	> 10	> 1		> 10		> 10	> 1	> 1		5.68	> 1	> 1	> 3	> 0.3	> 10		> 2	> 1	> 10	> 3
OV-56 (Ovarian Carcinoma)	> 1		0.0422					> 0.001	> 10	> 1		> 10	> 10	> 10	> 0.3	> 10	> 3	> 10	> 1		> 10		> 10	> 1	> 1		> 10	> 1	> 1	> 3	0.025	> 10		> 2	> 1	> 10	> 3
SW1573 (Lung Adenocarcinoma)	> 1		> 1					> 0.001	> 10	> 1		> 10	> 10	> 10	> 0.3	> 10	> 3	> 10	> 1		> 10		> 10	> 1	> 1		> 10	> 1	> 1	> 3	0.0522	> 10		> 2	> 1	> 10	> 3
